Assay results from patent publication EP4512806A1, “MOLECULAR GLUE DEGRADERS AND USES THEREOF” (Mablink Bioscience, priority 2023, dated 2025).
Values belong to the compound of their own block, whether it stands above or below them. Peptide text beside a SMILES is read from it. * marks the point of attachment. Cbz = O=C(OCc1ccccc1)*

What was measured:
JIMT-1 = assay: In vitro cytotoxicity assay (MTT); format: cell-based, human; settings: 6 days incubation
Source text: (§1) Human cancer cell lines used in the present project were purchased from either the American Type Culture Collection (ATCC), The Leibniz Institute DSMZ German Collection of Microorganisms and Cell Cultures GmbH (DSMZ) or the European Collection of Authenticated Cell Cultures (ECACC). For use in experiments, cells were cultivated following good and established cell culture practices, following instructions from the original ATCC/DSMZ/ECACC supplier for cell culture media & supplement, cryopreservation, and subculturing procedures. Cells were incubated under a 5% CO2 atmosphere at 37°C for no longer than 2 months.
(§2) In vitro cytotoxicity of compounds of the disclosure was assessed on several cancerous human cell lines. Cells were plated in 96-well plates at an appropriate density depending on the cell line (between 1000 and 10 000 cells/well in 100µL of appropriate culture media) and incubated at 37°C for 24 hours. Serial dilutions of the tested compound previously dissolved in culture media (50µL) were added, and incubation was carried at 37°C out for 6 days. MTT (5mg/mL in PBS, 20µL, Sigma-Aldrich) was added into the wells, and incubation was continued for 1 to 4 hours at 37°C. Culture media was then carefully removed, and well content was homogeneously dissolved with acidified isopropanol. Absorbance values were measured on a microplate reader using a wavelength of 570 nm (with a reference wavelength of 690 nm). The IC50 concentration values compared to untreated control cells were determined using inhibition dose response curve fitting (GraphPad Prism 9). Exatecan mesylate (cat#HY-13631A) and CR8 (CAS# 294646-77-8; cat#HY-18340) were purchased from MedChemExpress (China).

NCI-N87 = assay: In vitro cytotoxicity assay (MTT); format: cell-based, human; settings: 6 days incubation
Source text: as §1, §2

BT-474 = assay: In vitro cytotoxicity assay (MTT); format: cell-based, human; settings: 6 days incubation
Source text: as §1, §2

MDA-MB-453 = assay: In vitro cytotoxicity assay (MTT); format: cell-based, human; settings: 6 days incubation
Source text: as §1, §2

MDA-MB-231 = assay: In vitro cytotoxicity assay (MTT); format: cell-based, human; settings: 6 days incubation
Source text: as §1, §2

SKBR-3 = assay: In vitro cytotoxicity assay (MTT); format: cell-based, human; settings: 6 days incubation
Source text: as §1, §2

[1] = Passive permeability assessment (PAMPA assay); format: in vitro ADME; settings: in words
BCRP = target: T1, BCRP (Homo sapiens, UniProt Q9UNQ0); assay: BCRP efflux substrate assay (MDCK-BCRP); format: in vitro ADME; settings: 5µM, 60 min, in words
T1 construct: host or cells: MDCK-BCRP
T1 sequence (Q9UNQ0 1-655): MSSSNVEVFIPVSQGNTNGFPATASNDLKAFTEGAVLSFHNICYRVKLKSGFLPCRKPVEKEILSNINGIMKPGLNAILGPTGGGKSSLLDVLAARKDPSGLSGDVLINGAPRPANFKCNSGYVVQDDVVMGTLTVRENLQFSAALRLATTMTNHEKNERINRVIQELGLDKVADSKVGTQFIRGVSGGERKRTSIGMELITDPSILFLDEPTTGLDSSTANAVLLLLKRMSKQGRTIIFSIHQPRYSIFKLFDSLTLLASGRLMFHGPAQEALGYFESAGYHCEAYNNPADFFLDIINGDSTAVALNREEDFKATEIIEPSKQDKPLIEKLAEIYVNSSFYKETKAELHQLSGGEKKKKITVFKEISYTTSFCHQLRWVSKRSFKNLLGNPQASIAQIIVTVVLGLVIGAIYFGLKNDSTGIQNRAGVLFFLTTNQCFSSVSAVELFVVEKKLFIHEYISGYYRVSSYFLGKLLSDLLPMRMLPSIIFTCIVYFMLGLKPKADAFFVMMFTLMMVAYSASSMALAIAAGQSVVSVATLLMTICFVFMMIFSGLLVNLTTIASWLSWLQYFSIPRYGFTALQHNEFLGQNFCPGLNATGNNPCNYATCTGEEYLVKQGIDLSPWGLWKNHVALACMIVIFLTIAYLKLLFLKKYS
Protocol: (§3) MDR1 and BCRP efflux substrate assays were conducted in MDCK-MDR1 and MDCK-BCRP in vitro models (Preadyport™, Solvo Biotech) at Symeres (Nederland). Compound of the invention (donor well concentration of 5µM) were incubated in cell monolayer 24-transwell Preadyport system, using Preadyport recommended pH 7.4 assay buffer (donor and receiver wells). After 60 min of incubation (no shaking), samples are collected and suspended into triple volume of 66% cold acetonitrile. Samples are stored at -20°C until thawed, centrifuged and analyzed by LC-MS. Quinidine was used a positive control for the MDR1 assay, and prazosin was used as a positive control for the BCRP assay. Exatecan was used as a control, known not to be an MDR1 substrate. Residual DMSO content from compounds stock solutions was below 1% (v/v). The assay was performed in duplicate. The quantification of test compounds in donor or receptor compartment is conducted using relative LC/MS peak areas (samples of initial incubation solutions are used as a single point calibrator), without any spiked standard samples. The data is used for estimating apparent permeability (Papp) and calculation of efflux ratio.
BCRP, like MDR1, is a protein of the tumor cell membrane that pumps the anticancer drugs out of cancer cells, thereby rendering the cell drug-resistant. This multidrug-resistant protein is particularly expressed in breast and lung cancers. The efflux ratio B/A reflects the overall ability of a compounds to enter BCRP-expressing tumor cells (equilibrium between ability to passively enter the cell A→B and susceptibility to be pumped out of a tumor B→A).

MDR1 = target: T2, MDR1 (Homo sapiens, UniProt P08183); assay: MDR1 efflux substrate assay (MDCK-MDR1); format: in vitro ADME; settings: MDCK-MDR1, 5µM, 60 min, in words
T2 construct: host or cells: MDCK-MDR1
Protocol: as §3
MDR1 is protein of the tumor cell membrane that pumps the anticancer drugs out of cancer cells, thereby rendering the cell drug-resistant. The Papp (10^-6 cm/s) B (acceptor = basolateral) to A (donor = apical) reflects the susceptibility of a compounds to be pumped out of a tumor and as such a low Papp B→A value is advantageous in the context of oncology. The efflux ratio B/A reflects the overall ability of a compounds to enter MDR1-expressing tumor cells (equilibrium between ability to passively enter the cell A→B and susceptibility to be pumped out of a tumor B→A).

[2] = In vivo mice tolerability assessment; settings: female CD-1 mice, single intravenous 1mg/kg dose, Mean
Protocol: All animal procedures were performed in accordance with the European Union directive 86/609/EEC. Experiments were performed under individual permit and in accredited animal care facilities.
Mouse tolerability experiments were performed with selected compounds of the disclosure. Female CD-1 mice (n=5 mice per group) were treated with a single intravenous 1mg/kg dose of compound. Vehicle was PBS pH 6.0. Mice were carefully monitored for mortality, external clinical findings, weight loss, behavior and apparent signs of toxicity over the course of 21 days.

CycK = target: T3, CycK (Homo sapiens, UniProt O75909); assay: CycK protein quantification by Western Blot in JIMT-1 cells; format: cell-based; settings: 2h
T3 construct: endogenous in cells; host or cells: JIMT-1
Protocol: 1×10^6 JIMT-1 cells were plated in 3mL of DMEM/FBS 90:10 (v/v) in 6-well plates and incubated overnight. Cells were treated with the compound 2384 of the invention with or without the proteasome inhibitor MG-132 (MedChemExpress, Cat HY-13259) for 2h. Cells were harvested, and protein were extracted using complete RIPA buffer (RIPA buffer, 1 mM DTT, 1M NaF, 100 mM sodium orthovanadate, phosphatase inhibitor buffer and protease inhibitors) for 1 hour on ice. Lysate were centrifuged 15min at 12 000g at 4°C. and proteins were mixed with 4x Laemmli Sample Buffer (Bio-Rad), heated at 95 °C for 5 mins and separated by SDS PAGE (PROTEAN TGX Stain-Free Gels, Bio-Rad). Proteins were then transferred onto PVDF membrane (iBlot®2 PVDF stacks, Invitrogen) using the iBlot2 device (Invitrogen) and blocked with TBS buffer (Intercept® Blocking Buffer, LI-COR Biosciences). Primary antibodies were incubated overnight at 4°C and secondary antibodies (IRDye Infrared Dyes from LI-COR Biosciences) 1 hour at room temperature. Used primary antibody were: anti-CycK (cat#A301-939A, Bethyl Laboratories, dil. 1:1000) and anti-β-actin (cat#A5441, Sigma-Aldrich, dil. 1:5000). Membranes were scanned using a c500 Imaging System (Azure Biosystems) and densitometric quantification were performed using imaged software. Protein levels were normalized against β-actin.

T2 sequence (P08183 whole entry): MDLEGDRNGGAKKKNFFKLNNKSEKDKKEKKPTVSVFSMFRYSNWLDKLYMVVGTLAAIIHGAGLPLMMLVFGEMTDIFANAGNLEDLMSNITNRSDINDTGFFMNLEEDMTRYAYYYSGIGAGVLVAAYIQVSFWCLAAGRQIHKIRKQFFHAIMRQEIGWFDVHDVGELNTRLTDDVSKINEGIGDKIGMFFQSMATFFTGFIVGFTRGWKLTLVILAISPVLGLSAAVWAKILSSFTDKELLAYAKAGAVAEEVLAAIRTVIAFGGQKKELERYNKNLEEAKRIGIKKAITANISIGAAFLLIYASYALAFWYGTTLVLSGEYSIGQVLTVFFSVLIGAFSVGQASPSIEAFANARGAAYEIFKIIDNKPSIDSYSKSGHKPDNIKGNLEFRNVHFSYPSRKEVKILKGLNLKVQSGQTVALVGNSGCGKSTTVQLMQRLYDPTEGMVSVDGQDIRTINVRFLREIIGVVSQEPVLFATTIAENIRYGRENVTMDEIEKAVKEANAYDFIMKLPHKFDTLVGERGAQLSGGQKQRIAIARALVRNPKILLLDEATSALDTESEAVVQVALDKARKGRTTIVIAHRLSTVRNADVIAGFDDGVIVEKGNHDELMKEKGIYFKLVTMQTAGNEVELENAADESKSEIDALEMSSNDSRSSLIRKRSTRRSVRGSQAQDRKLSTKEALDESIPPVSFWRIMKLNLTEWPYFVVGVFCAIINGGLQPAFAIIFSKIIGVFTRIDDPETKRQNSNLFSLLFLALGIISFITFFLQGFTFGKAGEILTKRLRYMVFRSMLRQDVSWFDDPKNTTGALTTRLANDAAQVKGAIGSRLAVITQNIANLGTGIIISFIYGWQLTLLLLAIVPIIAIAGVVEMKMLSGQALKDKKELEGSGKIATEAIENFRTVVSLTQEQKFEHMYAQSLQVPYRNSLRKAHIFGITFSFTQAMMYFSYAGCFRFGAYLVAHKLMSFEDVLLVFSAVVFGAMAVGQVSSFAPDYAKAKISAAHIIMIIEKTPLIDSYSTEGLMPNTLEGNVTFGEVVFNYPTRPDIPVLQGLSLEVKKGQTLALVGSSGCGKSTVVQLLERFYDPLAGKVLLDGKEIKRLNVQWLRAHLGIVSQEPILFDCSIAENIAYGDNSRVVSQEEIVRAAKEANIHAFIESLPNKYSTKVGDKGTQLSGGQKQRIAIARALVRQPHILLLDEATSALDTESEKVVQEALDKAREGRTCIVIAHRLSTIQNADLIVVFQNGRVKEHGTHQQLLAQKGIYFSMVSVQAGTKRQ
T3 sequence (O75909 whole entry): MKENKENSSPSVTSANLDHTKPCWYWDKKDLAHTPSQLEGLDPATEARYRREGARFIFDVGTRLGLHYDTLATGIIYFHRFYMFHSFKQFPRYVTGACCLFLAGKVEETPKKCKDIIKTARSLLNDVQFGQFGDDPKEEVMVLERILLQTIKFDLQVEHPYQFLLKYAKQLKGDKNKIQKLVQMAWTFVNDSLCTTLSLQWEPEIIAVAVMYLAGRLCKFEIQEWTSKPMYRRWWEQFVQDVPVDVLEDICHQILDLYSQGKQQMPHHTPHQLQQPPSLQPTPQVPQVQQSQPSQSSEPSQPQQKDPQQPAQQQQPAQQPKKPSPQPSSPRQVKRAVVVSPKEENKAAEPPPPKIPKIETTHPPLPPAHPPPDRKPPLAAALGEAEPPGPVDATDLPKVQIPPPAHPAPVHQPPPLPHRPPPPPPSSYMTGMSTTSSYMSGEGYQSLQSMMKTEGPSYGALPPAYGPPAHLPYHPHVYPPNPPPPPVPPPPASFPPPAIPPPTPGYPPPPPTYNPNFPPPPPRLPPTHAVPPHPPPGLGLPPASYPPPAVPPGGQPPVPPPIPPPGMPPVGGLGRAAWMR
T3 sequence (Q9NYV4 whole entry partner): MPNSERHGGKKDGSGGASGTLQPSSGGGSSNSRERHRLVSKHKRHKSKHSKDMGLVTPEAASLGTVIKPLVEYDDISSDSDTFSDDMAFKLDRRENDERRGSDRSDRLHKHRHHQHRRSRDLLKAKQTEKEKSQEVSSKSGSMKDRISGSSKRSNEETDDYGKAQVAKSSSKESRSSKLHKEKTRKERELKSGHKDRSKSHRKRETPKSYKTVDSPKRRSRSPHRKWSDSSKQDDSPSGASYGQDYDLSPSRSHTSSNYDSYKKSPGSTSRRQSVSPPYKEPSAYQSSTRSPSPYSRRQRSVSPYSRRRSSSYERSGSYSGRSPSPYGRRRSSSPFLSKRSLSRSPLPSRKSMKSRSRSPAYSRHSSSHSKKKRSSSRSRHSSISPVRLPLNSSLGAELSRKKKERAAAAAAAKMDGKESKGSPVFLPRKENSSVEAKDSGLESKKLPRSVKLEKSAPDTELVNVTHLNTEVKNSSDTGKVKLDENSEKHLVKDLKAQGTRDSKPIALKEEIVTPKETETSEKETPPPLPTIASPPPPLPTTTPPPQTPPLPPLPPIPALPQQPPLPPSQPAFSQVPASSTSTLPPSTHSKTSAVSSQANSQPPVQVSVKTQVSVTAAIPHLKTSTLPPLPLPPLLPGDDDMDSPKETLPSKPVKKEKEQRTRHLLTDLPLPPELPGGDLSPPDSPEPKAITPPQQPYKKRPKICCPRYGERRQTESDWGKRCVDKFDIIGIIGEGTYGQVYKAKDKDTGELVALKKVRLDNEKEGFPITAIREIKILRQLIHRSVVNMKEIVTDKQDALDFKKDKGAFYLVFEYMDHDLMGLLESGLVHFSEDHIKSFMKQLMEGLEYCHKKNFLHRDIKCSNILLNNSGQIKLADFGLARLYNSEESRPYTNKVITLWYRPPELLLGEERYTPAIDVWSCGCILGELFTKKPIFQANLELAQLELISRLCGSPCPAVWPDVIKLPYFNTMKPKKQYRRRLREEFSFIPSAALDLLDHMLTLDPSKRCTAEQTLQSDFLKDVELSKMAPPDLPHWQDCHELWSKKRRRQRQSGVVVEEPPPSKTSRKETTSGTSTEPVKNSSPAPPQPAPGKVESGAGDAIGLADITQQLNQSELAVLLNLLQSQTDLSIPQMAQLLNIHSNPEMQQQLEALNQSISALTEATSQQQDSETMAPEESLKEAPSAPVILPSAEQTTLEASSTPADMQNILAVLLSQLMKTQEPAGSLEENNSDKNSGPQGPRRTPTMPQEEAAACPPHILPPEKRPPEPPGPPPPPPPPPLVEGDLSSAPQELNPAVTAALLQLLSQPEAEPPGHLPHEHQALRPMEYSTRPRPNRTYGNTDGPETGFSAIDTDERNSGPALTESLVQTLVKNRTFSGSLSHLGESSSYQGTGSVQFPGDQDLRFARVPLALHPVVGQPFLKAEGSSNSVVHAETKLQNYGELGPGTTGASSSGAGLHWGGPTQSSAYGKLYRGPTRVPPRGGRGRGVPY
T3 sequence (Q16531 whole entry partner): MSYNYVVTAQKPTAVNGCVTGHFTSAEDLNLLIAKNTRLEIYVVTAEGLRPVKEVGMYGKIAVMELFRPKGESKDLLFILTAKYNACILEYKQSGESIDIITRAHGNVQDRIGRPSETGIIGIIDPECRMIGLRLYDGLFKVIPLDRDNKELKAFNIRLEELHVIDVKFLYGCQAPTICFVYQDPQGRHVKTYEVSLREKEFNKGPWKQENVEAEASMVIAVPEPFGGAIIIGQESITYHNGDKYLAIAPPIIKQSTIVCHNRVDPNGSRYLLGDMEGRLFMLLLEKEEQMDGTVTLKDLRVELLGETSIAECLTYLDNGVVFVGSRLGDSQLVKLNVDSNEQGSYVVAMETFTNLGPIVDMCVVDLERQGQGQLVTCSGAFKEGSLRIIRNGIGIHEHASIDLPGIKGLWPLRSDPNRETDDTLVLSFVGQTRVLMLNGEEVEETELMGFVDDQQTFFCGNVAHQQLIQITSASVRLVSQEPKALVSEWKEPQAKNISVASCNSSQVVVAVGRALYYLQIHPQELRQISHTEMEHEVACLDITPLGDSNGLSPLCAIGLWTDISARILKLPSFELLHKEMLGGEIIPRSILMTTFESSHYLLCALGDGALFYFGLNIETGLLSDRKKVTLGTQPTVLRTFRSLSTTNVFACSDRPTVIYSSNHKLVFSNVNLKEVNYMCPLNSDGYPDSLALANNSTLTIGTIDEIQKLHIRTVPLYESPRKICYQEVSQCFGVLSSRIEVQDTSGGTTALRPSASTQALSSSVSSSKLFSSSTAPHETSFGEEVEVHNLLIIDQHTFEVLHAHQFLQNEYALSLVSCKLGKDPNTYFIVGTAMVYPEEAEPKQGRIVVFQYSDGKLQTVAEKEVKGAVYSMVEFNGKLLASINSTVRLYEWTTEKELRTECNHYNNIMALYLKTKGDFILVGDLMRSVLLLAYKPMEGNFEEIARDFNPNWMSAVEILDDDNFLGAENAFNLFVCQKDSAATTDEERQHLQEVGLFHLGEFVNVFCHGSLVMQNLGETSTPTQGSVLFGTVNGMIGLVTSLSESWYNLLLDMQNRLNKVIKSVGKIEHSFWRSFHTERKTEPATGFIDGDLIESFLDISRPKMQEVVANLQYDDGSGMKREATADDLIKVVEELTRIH

Compound: Brc1cnn2c(Nc3ccc(CN4CCOCC4)cc3)nc(NC3CCNCC3)nc12 [Compound 2554]
IC50 (JIMT-1): > 100 nM
IC50 (NCI-N87): > 100 nM
IC50 (BT-474): > 100 nM
IC50 (MDA-MB-453): > 100 nM
IC50 (MDA-MB-231): > 100 nM
IC50 (SKBR-3): > 100 nM

passive permeability potential [1]: none
Compound: NCCCCNc1nc(NCc2ccc(-c3ccccn3)cc2)n2ncc(Br)c2n1 [Compound 2585]

BCRP efflux potential (BCRP): low level
MDR1 efflux potential (MDR1): low level
Compound: CN(CCN)c1nc(NCc2ccc(-c3ccccn3)cc2)n2ncc(Br)c2n1 [Compound 2600]

BCRP efflux potential (BCRP): low level
MDR1 efflux potential (MDR1): low level
Compound: CNCCN(C)c1nc(NCc2ccc(-c3ccccn3)cc2)n2ncc(Br)c2n1 [Compound 2605]

passive permeability potential [1]: moderate
Compound: NC[C@H]1CC[C@H](Nc2nc(NCc3ccc(-c4ccccn4)cc3)n3ncc(Br)c3n2)CC1 [Compound 2636]

BCRP efflux potential (BCRP): low level
MDR1 efflux potential (MDR1): low level
Compound: N[C@H]1CCN(c2nc(NCc3ccc(-c4ccccn4)cc3)n3ncc(Br)c3n2)C1 [Compound 2655]

Compound: Brc1cnn2c(NCc3ccc(-c4ccccn4)cc3)nc(N[C@H]3CCNC3)nc12 [Compound 2657]
average weight change (% initial weight) ([2]; Study Day 1): 0.0 % initial weight
average weight change (% initial weight) ([2]; Study Day 2): 1.3 % initial weight
average weight change (% initial weight) ([2]; Study Day 3): 1.5 % initial weight
average weight change (% initial weight) ([2]; Study Day 4): 1.7 % initial weight
average weight change (% initial weight) ([2]; Study Day 5): 2.3 % initial weight
average weight change (% initial weight) ([2]; Study Day 6): 4.2 % initial weight
average weight change (% initial weight) ([2]; Study Day 7): 3.3 % initial weight
average weight change (% initial weight) ([2]; Study Day 8): 4.2 % initial weight
average weight change (% initial weight) ([2]; Study Day 9): 4.5 % initial weight
average weight change (% initial weight) ([2]; Study Day 10): 7.8 % initial weight
average weight change (% initial weight) ([2]; Study Day 11): 7.7 % initial weight
average weight change (% initial weight) ([2]; Study Day 12): 8.0 % initial weight
average weight change (% initial weight) ([2]; Study Day 13): 7.9 % initial weight
average weight change (% initial weight) ([2]; Study Day 14): 8.0 % initial weight
average weight change (% initial weight) ([2]; Study Day 15): 7.9 % initial weight
average weight change (% initial weight) ([2]; Study Day 16): 9.4 % initial weight
average weight change (% initial weight) ([2]; Study Day 17): 9.3 % initial weight
average weight change (% initial weight) ([2]; Study Day 18): 9.8 % initial weight
average weight change (% initial weight) ([2]; Study Day 19): 10.5 % initial weight
average weight change (% initial weight) ([2]; Study Day 20): 11.4 % initial weight
average weight change (% initial weight) ([2]; Study Day 21): 12.0 % initial weight
IC50 (NCI-N87): 0.43 nM
IC50 (BT-474): 1.71 nM
IC50 (MDA-MB-453): 0.77 nM
IC50 (MDA-MB-231): 0.56 nM
IC50 (SKBR-3): 0.13 nM

passive permeability potential [1]: high
Compound: N[C@H]1CCCC[C@@H]1Nc1nc(NCc2ccc(-c3ccccn3)cc2)n2ncc(Br)c2n1 [Compound 2671]

Compound: CC(C)C[C@@H](C=O)NC(=O)[C@H](CC(C)C)NC(=O)[C@H](CC(C)C)NC(=O)OCc1ccccc1 [MG-132, reference compound] (Cbz-Leu-Leu-Leu-aldehyde)
CycK protein content in combination with proteasome inhibitor (CycK; degrader combined with MG-132): restored the content in cycK protein

CycK protein content (CycK; 1µM final concentration): no impact
Compound: CN(C)C/C=C/C(=O)Nc1ccc(C(=O)N2CCC[C@@H](Nc3ncc(Cl)c(-c4c[nH]c5ccccc45)n3)C2)cc1 [THZ-531, reference compound]
